In BindingDB's records for doi:10.1016/j.chembiol.2014.09.011 (Astrazeneca R&D, 2014) one finds IC50 data, which are given here for two molecules.

Holding throughout (test): AMPD Enzymatic Activity Assay
Common to all, as to conditions: pH 7.4

In assay [1] the target is T1, AMP deaminase 1 (Rattus norvegicus, UniProt P10759).
T1 sequence (P10759 whole entry): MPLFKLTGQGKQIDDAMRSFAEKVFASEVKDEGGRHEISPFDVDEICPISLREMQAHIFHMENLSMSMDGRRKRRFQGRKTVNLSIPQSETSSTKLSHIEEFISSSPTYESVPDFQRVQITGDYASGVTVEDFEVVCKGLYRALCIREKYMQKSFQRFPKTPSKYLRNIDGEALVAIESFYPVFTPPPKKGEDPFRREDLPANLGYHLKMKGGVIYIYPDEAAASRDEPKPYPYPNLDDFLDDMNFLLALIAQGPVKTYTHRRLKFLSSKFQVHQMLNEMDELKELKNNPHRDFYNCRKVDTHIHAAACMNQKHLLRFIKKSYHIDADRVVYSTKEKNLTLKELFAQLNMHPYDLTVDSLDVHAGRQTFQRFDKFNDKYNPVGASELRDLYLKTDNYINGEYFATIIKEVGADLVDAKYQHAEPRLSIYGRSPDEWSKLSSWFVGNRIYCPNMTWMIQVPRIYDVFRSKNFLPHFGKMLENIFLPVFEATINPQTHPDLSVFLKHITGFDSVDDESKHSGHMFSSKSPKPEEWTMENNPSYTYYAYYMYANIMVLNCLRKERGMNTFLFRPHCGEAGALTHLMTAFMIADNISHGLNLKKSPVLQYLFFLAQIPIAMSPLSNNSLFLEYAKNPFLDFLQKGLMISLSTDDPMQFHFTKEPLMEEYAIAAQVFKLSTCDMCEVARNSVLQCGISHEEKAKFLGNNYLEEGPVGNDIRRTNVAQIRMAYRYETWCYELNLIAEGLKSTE
How it is done: (§1) AMPD1 was added to buffer A (50 mM HEPES, 150 mM KCl, 5 mM MgCl2, and 0.5 mMglutathione [pH 7.4]) to a concentration of 10 nM. A substrate mix consistingof 2mMNADPH, 6mMa-ketoglutarate, 8mMAMP, and 15 U GDH was prepared in buffer A. Substrate mix ([…]) was added to the plate, followed by centrifugation and incubation for 1 hr. Detection was by absorbance at 340 nm following the conversion of NADPH to NADP+. Recombinant AMPD enzyme activity assays were performed in a 384-well format using the same conditions as described above, except the assay volume was […] and the AMP concentration for the AMPD2 assay was 8 mM. Different AMPD enzyme concentrations were used to have linear reactions: hAMPD1 (4 nM), hAMPD2 (38 nM), hAMPD3 (1 nM), rAMPD1 (116 nM), rAMPD2 (53 nM), rAMPD3 (31 nM), and mAMPD1 (816 nM).

For the next assay, the target named is T2, AMP deaminase 2 (Rattus norvegicus, UniProt Q02356).
T2 sequence (Q02356 whole entry): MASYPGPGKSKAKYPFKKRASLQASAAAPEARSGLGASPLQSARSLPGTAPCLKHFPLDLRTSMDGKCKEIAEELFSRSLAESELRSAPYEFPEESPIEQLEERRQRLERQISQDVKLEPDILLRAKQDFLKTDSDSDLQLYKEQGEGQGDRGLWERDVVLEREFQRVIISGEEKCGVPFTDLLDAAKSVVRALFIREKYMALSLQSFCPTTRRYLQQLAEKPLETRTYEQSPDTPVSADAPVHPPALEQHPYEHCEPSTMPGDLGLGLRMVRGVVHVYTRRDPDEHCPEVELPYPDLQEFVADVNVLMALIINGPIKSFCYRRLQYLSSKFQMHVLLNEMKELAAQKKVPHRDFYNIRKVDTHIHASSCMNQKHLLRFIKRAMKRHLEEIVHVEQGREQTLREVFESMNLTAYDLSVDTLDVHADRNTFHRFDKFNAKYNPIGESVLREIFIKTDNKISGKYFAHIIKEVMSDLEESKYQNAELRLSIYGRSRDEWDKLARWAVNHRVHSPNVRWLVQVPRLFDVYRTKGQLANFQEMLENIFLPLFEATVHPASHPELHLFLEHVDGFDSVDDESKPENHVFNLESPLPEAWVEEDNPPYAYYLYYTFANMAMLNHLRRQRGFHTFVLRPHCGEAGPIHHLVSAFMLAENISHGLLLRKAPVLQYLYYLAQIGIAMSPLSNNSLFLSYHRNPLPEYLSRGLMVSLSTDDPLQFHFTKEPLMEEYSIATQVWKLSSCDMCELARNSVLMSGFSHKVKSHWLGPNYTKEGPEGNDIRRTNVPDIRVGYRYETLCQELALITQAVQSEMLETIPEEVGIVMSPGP
How it is done:
as §1

Assay [2] addresses T3, AMP deaminase 1 (Mus musculus, UniProt Q3V1D3).
T3 sequence (Q3V1D3 whole entry): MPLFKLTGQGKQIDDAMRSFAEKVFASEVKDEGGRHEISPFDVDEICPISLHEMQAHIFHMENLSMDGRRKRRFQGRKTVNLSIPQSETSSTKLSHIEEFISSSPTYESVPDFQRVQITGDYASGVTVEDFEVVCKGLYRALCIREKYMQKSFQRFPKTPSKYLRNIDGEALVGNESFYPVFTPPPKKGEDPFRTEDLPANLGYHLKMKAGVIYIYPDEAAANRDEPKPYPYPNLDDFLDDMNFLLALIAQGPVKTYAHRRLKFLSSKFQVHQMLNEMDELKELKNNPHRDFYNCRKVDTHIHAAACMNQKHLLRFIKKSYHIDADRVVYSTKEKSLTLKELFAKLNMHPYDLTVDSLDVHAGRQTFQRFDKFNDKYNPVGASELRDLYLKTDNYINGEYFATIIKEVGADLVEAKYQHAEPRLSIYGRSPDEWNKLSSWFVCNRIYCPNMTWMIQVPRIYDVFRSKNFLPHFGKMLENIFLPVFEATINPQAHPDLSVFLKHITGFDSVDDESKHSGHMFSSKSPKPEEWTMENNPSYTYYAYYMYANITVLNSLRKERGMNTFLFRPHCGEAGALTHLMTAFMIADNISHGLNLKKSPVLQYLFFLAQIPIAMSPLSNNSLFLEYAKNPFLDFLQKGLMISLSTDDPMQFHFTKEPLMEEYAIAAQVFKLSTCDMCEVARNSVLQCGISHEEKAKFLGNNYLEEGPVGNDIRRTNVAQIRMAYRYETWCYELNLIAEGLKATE
How it is done:
as §1

The target of assay [3] is T4, AMP deaminase 1 (Homo sapiens, UniProt P23109).
T4 sequence (P23109 whole entry): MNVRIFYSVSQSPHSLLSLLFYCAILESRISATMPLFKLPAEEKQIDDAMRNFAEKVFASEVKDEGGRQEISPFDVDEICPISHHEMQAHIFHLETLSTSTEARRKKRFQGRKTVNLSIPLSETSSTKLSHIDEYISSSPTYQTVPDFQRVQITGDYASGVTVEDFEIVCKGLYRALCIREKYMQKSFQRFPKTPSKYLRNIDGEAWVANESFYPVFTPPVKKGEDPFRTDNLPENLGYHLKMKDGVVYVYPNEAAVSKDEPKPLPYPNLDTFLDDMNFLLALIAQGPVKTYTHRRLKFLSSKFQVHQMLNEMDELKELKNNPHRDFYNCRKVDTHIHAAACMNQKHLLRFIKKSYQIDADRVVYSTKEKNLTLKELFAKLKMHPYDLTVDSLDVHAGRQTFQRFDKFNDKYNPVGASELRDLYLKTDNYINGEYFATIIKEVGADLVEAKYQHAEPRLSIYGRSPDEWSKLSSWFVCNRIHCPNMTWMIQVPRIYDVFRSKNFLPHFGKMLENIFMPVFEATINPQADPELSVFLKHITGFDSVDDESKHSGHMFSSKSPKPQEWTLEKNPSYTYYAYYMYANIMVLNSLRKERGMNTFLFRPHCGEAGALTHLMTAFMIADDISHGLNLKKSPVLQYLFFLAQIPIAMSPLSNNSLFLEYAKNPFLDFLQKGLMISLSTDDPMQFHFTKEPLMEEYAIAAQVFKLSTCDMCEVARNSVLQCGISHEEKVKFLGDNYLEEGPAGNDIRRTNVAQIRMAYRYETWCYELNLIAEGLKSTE
How it is done: as §1

SMILES strings stand for the structures.

As for `COc1cc(-c2ccc(CN[C@H](C)c3cccc4ccncc34)cc2)ccc1C(=O)O` [4-[4-({[(1R)-1-(isoquinolin-8-yl)ethyl]amino}methyl)phenyl]-2-methoxybenzoic acid (Compound 4)], the 50% inhibitory concentration (IC50) at AMP deaminase 1 [1] was 20 nM; at AMP deaminase 2 it was 300 nM; against AMP deaminase 1 [2], 20 nM; against AMP deaminase 1 [3], 24 nM.
For `C[C@@H](NCc1ccc(-c2ccc(C(=O)O)cn2)cc1)c1cccc2ccccc12` [6-[4-({[(1R)-1-(naphthalen-1-yl)ethyl]amino}methyl)phenyl]pyridine-3-carboxylic acid (Compound 1)], inhibition against AMP deaminase 1 [3] was half-maximal at 620 nM (IC50).
